Consider 1 compound from patent US12390467B2, “Necroptosis inducers or autophagy inhibitors or a combination thereof” (The University of Toledo, priority 2018, dated 2025).

Holding throughout (assay type): cell-based
For assay [1], the system named is other normal cell lines (colon and kidney). The experiment in a line: MTT cytotoxicity, other normal cell lines. On the procedure:
(§1) The following cancer and non-cancer cell lines were used in the initial cytotoxicity screening of the TPH104 compounds: triple negative breast cancer (TNBC): MDA-MB468, MDA-MB 231, and BT-20; non-TNBC: MCF-7 and ZR-75-1; ovarian: Ov2008; prostate: DU145; colon: HCT-116, S1, and LOVO; lung: H460; normal kidney: HEK-293; normal breast: HMEC; and normal colon: CRL-1459. All cells were cultured in Dulbecco's modified Eagle medium (DMEM), supplemented with 10% fetal bovine serum (FBS), and 1% penicillin/streptomycin (P/S). Cells were allowed to grow as adherent monolayers in T25 flasks in a humidified incubator with 5% CO2 at 37° C. for a period of 24 h, unless otherwise specified for certain experiments.
The MTT assay was used to determine the cytotoxicity of all of the compounds. Briefly, in a 96-well flat-bottom cell culture plate, the cells were seeded at a density between 3-5×10^3 cells/well (180 μl in each well) and incubated for 24 h (a hemocytometer was used for cell counting). […] Subsequently, the plate was shaken for 2 minutes and the absorbance was measured at a wavelength of 570 nm using a SpectraMax iD3 Multi-Mode Microplate Reader (Molecular Devices, Sunnyvale, CA). The IC50 values of each compound were calculated and used to determine the selectivity ratio (IC50 in normal cells/IC50 in cancer cells) of each compound as previously described. […]

For assay [2], the system named is lung (H460), ovarian (OV2008), prostate (DU145), and colon (HCT-116, LOVO, S1). As to the kind of experiment: MTT cytotoxicity screening, other cancer types. Conditions: H460, OV2008, DU145, HCT-116, LOVO, less potently than in TNBC. On the procedure:
as §1
The MTT assay was used to determine the cytotoxicity of all of the compounds. […] Subsequently, the plate was shaken for 2 minutes and the absorbance was measured at a wavelength of 570 nm using a SpectraMax iD3 Multi-Mode Microplate Reader (Molecular Devices, Sunnyvale, CA). The IC50 values of each compound were calculated and used to determine the selectivity ratio (IC50 in normal cells/IC50 in cancer cells) of each compound as previously described. […]
Table 3 (FIG. 30)-Cytotoxicity screening of TPH104 compounds against Colon (HCT-116, LOVO and S1), Prostate (DU145), Ovarian (Ov 2008), and Lung (H460) cancer cell lines. Cell survival was determined using MTT assay as described. […]

Assay [3] has as its system MDA-MB468, BT-20, and MDA-MB231. As to the kind of experiment: Trans-well migration assay. Conditions: 1 μM or 10 μM, 24 h. On the procedure:
This assay was used to assess the migration and invasiveness of TNBC cells. In this assay, 24 well-plates with 24 well inserts of 8 μm pore size, (Corning, Cambridge, MA, USA), were used. The inserts were pre-coated with growth-factor reduced matrigel (1:40) and added to each well, forming two chambers (upper and lower). Briefly, cells were seeded at a density of 10,000 cells/well in the upper chamber of the inserts. The lower chamber was filled with cell-free DMEM medium supplemented with 10% FBS and 1% P/S. The next day, cells were incubated with 0.1, 1, or 10 μM of TPH104 or vehicle for 24 h to allow the cells to migrate through the porous membrane into the lower chamber. Following incubation, cotton swabs were used to wipe away the non-migrated, stationary cells in the upper chamber. The migrated cells were fixed with 100% methanol and stained with 0.1% crystal violet dye. The migrated cells were then viewed, pictured and counted using an EVOS-FLC microscope as previously reported.

For assay [4], the system named is Bak, Bax, Bcl-2, caspases, PARP, cytochrome c in BT-20 cells. As to the kind of experiment: Western blot, apoptotic proteins. On the procedure: The TNBC cells were seeded in a culture flask and incubated for 24 h. The cells were then incubated with different concentrations of the lead compounds and re-incubated for an additional 12 or 24 h. […] The bicinchoninic acid (BCA) was used to determine protein concentration in the cell extracts (G-BIOSCIENCES, St. Louis, MO, USA). […] The membrane was blocked using 5% milk in Tris-buffered Tween 20 saline for 30 minutes. The membrane was then incubated overnight with primary antibodies against Bak, Bax, Bcl-2, caspase9, caspase 3, caspase 7, PARP, cytochrome c, N-cadherin, E-cadherin, c-Myc, dishevelled segment polarity protein 3 (DVL3), dishevelled segment polarity protein 2 (DVL2), Vimentin, mitogen-activated protein kinase kinase (MAPKK also known as MEK1/2), β-catenin, low-density lipoprotein receptor-related protein 6 (LRP6), receptor-interacting protein kinase (RIP), phosphorylated RIP (p-RIP), mixed lineage kinase domain like pseudokinase(MLKL), Caspase 8, light chain 3 (LC3), lysosomal-associated membrane protein 1 (LAMP1), unc-51 like autophagy activating kinase 1 (ULK1), ras associated protein 7 (Rab7), ras associated protein 5 (Rab5), Beclin 1, mechanistic target of rapamycin (mTOR), tumor necrosis factor alpha (TNF-α), tumor necrosis factor receptor 1 (TNFR1), tumor necrosis factor receptor 2 (TNFR2), Fas-associated protein with death domain (FADD), Fas ligand (Fas), TNF-related apoptosis-inducing ligand (TRAIL), death receptor 5 (DR5), Tumor necrosis factor receptor type 1-associated DEATH domain (TRADD), receptor-interacting protein kinase 3 (RIP3), β-actin or GAPDH in 1:1000 dilution in 5% milk or 5% BSA at 4° C. Horseradish peroxidase-labeled (HRP) anti-rabbit or anti-mouse secondary antibodies (1:5,000 dilution) were added and incubated the next day for an additional 1 h. A ChemiDoc™ MP System imaging system from Bio-Rad (Hercules, CA, USA) was used for blots reading. Blots were used to obtain the protein bands, followed by quantification of the bands using image J software (NIH, Bethesda, MD, USA). All of the data were expressed as the ratio of β-actin or GAPDH.

The subject of assay [5] is TNBC cell lines. The experiment in a line: Cytotoxicity screening (MTT), TNBC cell lines overall. Conditions: TNBC cell lines overall.
Text: To this end, several commercial databases were searched, and 17 similar molecules from the VitasM database were retrieved with considerable structural diversity in terms of the substitution on the aryl ring A attached to the thienopyrimidine scaffold and aryl ring B attached to hydrazino moiety. Further, the biological evaluation of the 17 molecules sheds light on the structural features deemed important for the selective cytotoxicity shown by this class of molecules. With this understanding, the 17 molecules were subjected to a screening protocol comprising of two TNBC, two non-TNBC, and one normal cell lines.
as §1
The MTT assay was used to determine the cytotoxicity of all of the compounds. Briefly, in a 96-well flat-bottom cell culture plate, the cells were seeded at a density between 3-5×10^3 cells/well (180 μl in each well) and incubated for 24 h (a hemocytometer was used for cell counting). The next day, the cells were incubated with different concentrations of the nine compounds (0, 0.1, 0.3, 1, 3, 10, 30, and 100 μM) for 72 h. After 72 h, 20 μl of 5 mg/ml of 3-(4,5-dimethylthiazol-2-yl)-2,5-diphenyltetrazolium bromide (MTT) was added to the plate and incubated with the cells for 3 h at 37° C. In this experiment, the living cells will reduce the soluble MTT dye to non-soluble purple formazan crystals. Following incubation, the media containing MTT removed via suction and 100 μL of 100% dimethyl sulfoxide (DMSO) was added to dissolve the formazan crystals. Subsequently, the plate was shaken for 2 minutes and the absorbance was measured at a wavelength of 570 nm using a SpectraMax iD3 Multi-Mode Microplate Reader (Molecular Devices, Sunnyvale, CA). The IC50 values of each compound were calculated and used to determine the selectivity ratio (IC50 in normal cells/IC50 in cancer cells) of each compound as previously described. Based on the results obtained from these experiments, the compound TPH104, which had the lowest IC50 value, was selected for further experiments.

Where only a bound is given, the exact number is not on record here.

One may read the IC50 as the concentration at which inhibition is half-maximal. Read a high IC50 as weaker potency in that assay. Turning to `COc1ccc(O)c(/C=N/Nc2ncnc3scc(-c4ccc(C)cc4)c23)c1` [TPH104], the “selectivity fold in comparison to other normal cell lines (colon and kidney)” value in assay [1] is “up to 30 fold”. The “proliferation of other types of cancer” value in assay [2] is listed as “significantly inhibited”. In addition, the “migration of TNBC cells” value in assay [3] is “significantly decreased”. Moreover, the “expression levels of caspase 3 and cleaved caspase 3” value in assay [4] (2 μM or 5 μM) is reported as “significantly decreased”. Also, in assay [4] (0.5, 1, 2, and 5 μM), the “expression levels of caspase 7 and caspase 9” value is reported as “did not significantly alter”; the “expression of Bcl2” value was “increased”. Moreover, the “expression of Bak” value in assay [4] (0.5, 1, 2, and 5 μM, BT-20 and MDA-MB468) was “not significantly altered”. Further, in assay [4] (1, 2, and 5 μM), the PARP cleavage result is given as “significantly cleaved” and the “expression of cytochrome c” value is “significantly decreased”. Also, the “expression of Bax” value in assay [4] (1, 2, and 5 μM, BT-20 and MDA-MB468) is reported as “significantly decreased”. The compound further came in with an IC50 in assay [5] of less than 1000 nM.
